This is an account of results in patent US7855290B2, “Pyridine derivatives and pyrimidine derivatives (3)” (Eisai R&D Management Co., Ltd., priority 2005, dated 2010).

For experiment [1], the target named is T1, His6-HGFR (HGFR cytoplasmic domain) (Homo sapiens, UniProt P08581).
T1 construct: made in house; host or cells: Sf9 insect cells (Spodoptera frugiperda), baculovirus, pFastBac-HT vector
The experiment in a line: Inhibitory activity against HGFR tyrosine kinase activity (HTRF). It counts as biochemical. As to conditions: biotin-poly(GT), ATP, 30° C. 10 min. From the text:
The cytoplasmic domain of HGFR (Genbank Accession No. J02958) is a 1.3 kb DNA fragment beginning with Lys974 and including a stop codon, and described by Park et al. (Proc. Natl. Acad. Sci. U.S.A. 84(18), 6379-6383, 1987). The DNA fragment was isolated from the human placental cDNA library (purchased from Clontech) by PCR (TaKaRa Ex Taq™ Kit, purchased from TaKaRa) using two kinds of primers (SEQ ID NO: 1,5′-[…]-3′ and SEQ ID NO: 2,5′-[…]-3′, purchased from Invitrogen). The DNA fragment was cloned into a baculovirus transplace vector (pFastBac™-HT (purchased from GIBCO BRL)) to produce a recombinant construct. […] EGFR was purchased from Sigma (Production No. E-2645).
To the suspension of Sf9 cells (3×10^8 cells) in SF-900II medium (purchased from Invitrogen) containing 2% FBS was added a solution of HGFR transfected baculovirus above (4 ml), followed by a shaking culture at 27° C. for 48 hrs. The cells infected with the HGFR transfected baculovirus were centrifuged at 1,000 rpm, 4° C. for 5 min to remove the supernatant. The precipitated infected cells were suspended in 80 ml of ice-cold PBS, and centrifuged at 1,000 rpm, 4° C. for 5 min to remove the supernatant. The precipitated infected cells were suspended in 40 ml of ice-cold Lysis Buffer (50 mM Tris-HCl (pH 8.5), 5 mM 2-mercaptoethanol, 100 mM KCl, 1 mM PMSF and 1% (v/v) NP-40). The suspension was centrifuged at 12,000 rpm, 4° C. for 30 min to provide a supernatant.
The supernatant was loaded onto an Ni-NTA agarose column (3 ml, purchased from Qiagen) equilibrated with 30 ml of Buffer A (20 mM Tris-HCl (pH 8.5), 5 mM 2-mercaptoethanol, 500 mM KCl, 20 mM imidazole and 10% (v/v) glycerol). The column was washed with 30 ml of Buffer A, 6 ml of Buffer B (20 mM Tris-HCl (pH 8.5), 5 mM 2-mercaptoethanol, 1 M KCl, and 10% (v/v) glycerol) and 6 ml of Buffer A in this order. Then, the column was eluted with 6 ml of Buffer C (20 mM Tris-HCl (pH 8.5), 5 mM 2-mercaptoethanol, 100 mM KCl, 100 mM imidazole, and 10% (v/v) glycerol) to provide a fraction. The fraction was entrapped in a dialysis membrane (purchased from Spectrum Laboratories), dialyzed at 4° C. overnight with 1 L of dialysis buffer (20 mM Tris-HCl (pH 7.5), 10% (v/v) glycerol, 1 mM dithiothreitol, 0.1 mM Na3VO4 and 0.1 mM EGTA), and stored at −80° C. until used. […] The VEGFR2 cytoplasmic domain, the FGFR1 cytoplasmic domain, and the PDGFRβ cytoplasmic domain were fused with six histidine at the N terminus by the similar method to produce respective recombinant proteins (His6-VEGFR2, His6-FGFR1, and His6-PDGFRβ).
To each well of a 96-well round plate (purchased from NUNC, Production No. 163320) were added 10 μl of a solution for kinase reaction (200 mM Hepes (pH 7.4), 80 mM MgCl2, 16 mM MnCl2 and 2 mM Na3VO4), 250 ng of biotinylated poly(Glu4: Tyr1) (biotin-poly(GT), purchased from Japan Schering) (6 μl, 15-fold diluted with distilled water), 30 ng of His6-HGFR (10 μl, 60-fold diluted with 0.4% BSA) and a test substance dissolved in dimethylsulfoxide (4 μl, 100-fold diluted with 0.1% BSA) to mess up to 30 μl. To the well was added 10 μl of 4 μM ATP (purchased from Sigma) diluted with distilled water to incubate at 30° C. for 10 min, followed by adding 10 μl of 500 mM EDTA (pH 8.0) (purchased from Wako Pure Chemicals) to provide a kinase reaction solution.
The tyrosine-phosphorylated biotin-poly(GT) was detected using the Homogenous Time-Resolved Fluorescence (HTRF) method (Analytical Biochemistry, 269, 94-104, 1999).
A general note: Time-resolved FRET reads energy transfer from a long-lived donor to a nearby acceptor.

Experiment [2] deals with Human gastric cancer cells (MKN-45). The experiment in a line: Inhibitory activity against the proliferation of human gastric cancer cells (MKN-45). Conditions: 72 h, MKN-45, 1% FBS RPMI1640, 3 days, Cell Counting Kit-8. It counts as cell-based. As for the experimental part: Human gastric cancer cells (MKN-45) were suspended in a 1% FBS-containing RPMI1640 medium (purchased from Sigma). The cell suspension (1×10^4 cells/ml) was added in a 96-well plate for cell culture (purchased from NUNC, Production No. 167008) at 0.1 ml/well, and then cultured in a 5% CO2 incubator (37° C.) overnight. After the culture, each well was supplied with 0.1 ml of a test substance diluted with a 1% FBS-containing RPMI1640 medium, followed by culturing in a 5% CO2 incubator (37° C.) for 3 days. After the culture, each well was supplied with 10 μl of Cell Counting Kit-8 (purchased from DOJINDO, Production No. 343-07623), followed by incubation in a 5% CO2 incubator (37° C.) for about 1.5 hrs. After the incubation, using the Plate Reader MTP-500 (Corona Electric), the absorbance of each well was determined at a measurement wavelength of 450 nm and a reference wavelength of 660 nm.

Structures are written as SMILES.

T1 sequence (P08581 956-1390 limits assumed): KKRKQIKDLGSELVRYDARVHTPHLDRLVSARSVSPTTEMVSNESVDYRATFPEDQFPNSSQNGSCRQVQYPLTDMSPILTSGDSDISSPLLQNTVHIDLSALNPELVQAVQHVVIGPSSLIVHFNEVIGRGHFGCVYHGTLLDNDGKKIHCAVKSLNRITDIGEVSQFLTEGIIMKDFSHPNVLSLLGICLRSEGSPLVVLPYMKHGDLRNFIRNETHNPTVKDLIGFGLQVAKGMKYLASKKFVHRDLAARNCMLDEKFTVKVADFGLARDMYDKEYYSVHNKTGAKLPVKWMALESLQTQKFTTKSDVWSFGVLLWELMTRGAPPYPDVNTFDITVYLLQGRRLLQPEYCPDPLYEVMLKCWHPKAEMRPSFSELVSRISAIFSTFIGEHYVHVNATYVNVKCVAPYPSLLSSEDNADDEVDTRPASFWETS

On to `CN1CCC(N(C)C(=O)Nc2cc(Oc3ccc(NC(=O)C4(C(=O)Nc5ccc(F)cc5)CC4)cc3F)ccn2)CC1` [Example 1, N-(3-Fluoro-4-{[2-({[methyl(1-methylpiperidin-4-yl)amino]carbonyl}amino)pyridin-4-yl]oxy}phenyl)-N′-(4-fluorophenyl)cyclopropane-1.1-dicarboxamide], for which the IC50 is 66 nM in experiment [1] and 13 nM in experiment [2].

For `CN(C)CCN1CCN(C(=O)Nc2cc(Oc3ccc(NC(=O)C4(C(=O)Nc5ccc(F)cc5)CC4)c(F)c3)ccn2)CC1` [Example 2, N-[4-({2-[({4-[2-(Dimethylamino)ethyl]piperazin-1-yl}carbonyl)amino]pyridin-4-yl}oxy)-2-fluorophenyl]-N′-(4-fluorophenyl)cyclopropane-1,1-dicarboxamide], the IC50 turned out to be 55 nM in experiment [1] and 18 nM in experiment [2].

In the case of `CN1CCC(N(C)C(=O)Nc2cc(Oc3ccc(NC(=O)C4(C(=O)Nc5ccc(F)cc5)CC4)c(F)c3)ccn2)CC1` [Example 3, N-(2-Fluoro-4-{[2-({[methyl(1-methylpiperidin-4-yl)amino]carbonyl}amino)pyridin-4-yl]oxy}phenyl)-N′-(4-fluorophenyl)cyclopropane-1,1-dicarboxamide], the results for the IC50 in experiment [1] and in experiment [2] were 39 nM and 15 nM, respectively.

`O=C(Nc1cc(Oc2ccc(NC(=O)C3(C(=O)Nc4ccc(F)cc4)CC3)c(F)c2)ccn1)N1CCC(N2CCCC2)CC1` [Example 4, N-(4-Fluorophenyl)-N′-{2-fluoro-4-[(2-{[(4-pyrrolidin-1-ylpiperidin-1-yl)carbonyl]amino}pyridin-4-yl)oxy]phenyl}cyclopropane-1,1-dicarboxamide]: the IC50 in experiment [1] worked out at 45 nM; in experiment [2], 21 nM.

`CN(C)CCN1CCN(C(=O)Nc2cc(Oc3ccc(NC(=O)C4(C(=O)Nc5ccc(F)cc5)CC4)cc3F)ccn2)CC1` [Example 7, N-[4-({2-[({4-[2-(Dimethylamino)ethyl]piperazin-1-yl}carbonyl)amino]pyridin-4-yl}oxy)-3-fluorophenyl]-N′-(4-fluorophenyl)cyclopropane-1,1-dicarboxamide]: the IC50 was found to be 51 nM in experiment [1] and 18 nM in experiment [2].

Take `CN(C)CC1CCN(C(=O)Nc2cc(Oc3ccc(NC(=O)C4(C(=O)Nc5ccc(F)cc5)CC4)c(F)c3)ccn2)CC1` [Example 8, N-[4-({2-[({4-[(Dimethylamino)methyl]piperidin-1-yl}carbonyl)amino]pyridin-4-yl}oxy)-2-fluorophenyl]-N′-(4-fluorophenyl)cyclopropane-1,1-dicarboxamide]: the figures for the half-maximal inhibitory concentration (IC50) in experiment [1] and in experiment [2] were 48 nM and 20 nM, respectively.

Turning to `O=C(Nc1cc(Oc2ccc(NC(=O)C3(C(=O)Nc4ccc(F)cc4)CC3)c(F)c2)ccn1)N1CCC(N2CCC2)CC1` [Example 9, N-{4-[(2-{[(4-Azetidin-1-ylpiperidin-1-yl)carbonyl]amino}pyridin-4-yl)oxy]-2-fluorophenyl}-N′-(4-fluorophenyl)cyclopropane-1,1-dicarboxamide], the IC50 came to 53 nM in experiment [1] and 26 nM in experiment [2].

As to `O=C(Nc1cc(Oc2ccc(NC(=O)C3(C(=O)Nc4ccc(F)cc4)CC3)cc2F)ccn1)N1CCC(N2CCCC2)CC1` [Example 10, N-(4-Fluorophenyl)-N′-{3-fluoro-4-[(2-{[(4-pyrrolidin-1-ylpiperidin-1-yl)carbonyl]amino}pyridin-4-yl)oxy]phenyl}cyclopropane-1,1-dicarboxamide], the figures for the IC50 in experiment [1] and in experiment [2] were 54 nM and 42 nM, respectively.

In the case of `O=C(Nc1cc(Oc2ccc(NC(=O)C3(C(=O)Nc4ccc(F)cc4)CC3)cc2F)ccn1)N1CCC(N2CCC2)CC1` [Example 11, N-{4-[(2-{[(4-Azetidin-1-ylpiperidin-1-yl)carbonyl]amino}pyridin-4-yl)oxy]-3-fluorophenyl}-N′-(4-fluorophenyl)cyclopropane-1,1-dicarboxamide], the IC50 was 46 nM in experiment [1] and 34 nM in experiment [2].

On to `CN1CCC(N(C)C(=O)Nc2cc(Oc3ccc(NC(=O)C4(C(=O)Nc5ccc(F)cc5)CC4)cc3)ccn2)CC1` [Example 12], for which the IC50 in experiment [1] came to 37 nM; in experiment [2], 31 nM.

As to `O=C(Nc1cc(Oc2ccc(NC(=O)C3(C(=O)Nc4ccc(F)cc4)CC3)cc2)ccn1)N1CCC(N2CCC2)CC1` [Example 13, N-{4-[(2-{[(4-Azetidin-1-ylpiperidin-1-yl)carbonyl]amino}pyridin-4-yl)oxy]phenyl}-N′-(4-fluorophenyl)cyclopropane-1,1-dicarboxamide], the IC50 in experiment [1] was found to be 55 nM; in experiment [2] it was 76 nM.

For the compound `CN(C)C1CN(C2CCN(C(=O)Nc3cc(Oc4ccc(NC(=O)C5(C(=O)Nc6ccc(F)cc6)CC5)c(F)c4)ccn3)CC2)C1` [Example 14, N-[4-({2-[({4-[3-(Dimethylamino)azetidin-1-yl]piperidin-1-yl}carbonyl)amino]pyridin-4-yl}oxy)-2-fluorophenyl]-N′-(4-fluorophenyl)cyclopropane-1,1-dicarboxamide], the values for the IC50 in experiment [1] and in experiment [2] were 60 nM and 17 nM, respectively.

With `CN1CCC(N2CCN(C(=O)Nc3cc(Oc4ccc(NC(=O)C5(C(=O)Nc6ccc(F)cc6)CC5)c(F)c4)ccn3)CC2)CC1` [Example 16, N-(2-Fluoro-4-{[2-({[4-(1-methylpiperidin-4-yl)piperazin-1-yl]carbonyl}amino)pyridin-4-yl]oxy}phenyl)-N′-(4-fluorophenyl)cyclopropane-1,1-dicarboxamide], the IC50 in experiment [1] was 64 nM; in experiment [2], 17 nM.

With `CN1CC(N2CCN(C(=O)Nc3cc(Oc4ccc(NC(=O)C5(C(=O)Nc6ccc(F)cc6)CC5)c(F)c4)ccn3)CC2)C1` [Example 17], the concentration for half-maximal inhibition (IC50) in experiment [1] came to 48 nM; in experiment [2], 14 nM.

As to `CN(C)C1CCN(C(=O)Nc2cc(Oc3ccc(NC(=O)C4(C(=O)Nc5ccc(F)cc5)CC4)c(F)c3)ccn2)CC1` [Example 18, N-(4-{[2-({[4-(Dimethylamino)piperidin-1-yl]carbonyl}amino)pyridin-4-yl]oxy}-2-fluorophenyl)-N′-(4-fluorophenyl)cyclopropane-1,1-dicarboxamide], the IC50 in experiment [1] was 53 nM; in experiment [2], 33 nM.

Turning to `CN1CCC(N2CCN(C(=O)Nc3cc(Oc4ccc(NC(=O)C5(C(=O)Nc6ccc(F)cc6)CC5)cc4F)ccn3)CC2)CC1` [Example 19, N-(3-Fluoro-4-{[2-({[4-(1-methylpiperidin-4-yl)piperazin-1-yl]carbonyl}amino)pyridin-4-yl]oxy}phenyl)-N′-(4-fluorophenyl)cyclopropane-1,1-dicarboxamide], the IC50 in experiment [1] amounted to 61 nM; in experiment [2] it was 12 nM.

Broadly, the IC50 is the midpoint of a concentration-inhibition curve. Low readings indicate inhibition by little substance, high ones a need for much substance.
